Patent US12581252B2, “Substituted pyrrolo[3,4-b]pyridines as PI3K-α inhibitors” (Relay Therapeutics, Inc., priority 2020, dated 2026)

molecular target: H1047R PIK3CA enzyme (Homo sapiens, UniProt P42336, H1047R); assay: ADP-Glo Biochemical PIK3CA Kinase Assay
Sequence (P42336 whole entry H1047R): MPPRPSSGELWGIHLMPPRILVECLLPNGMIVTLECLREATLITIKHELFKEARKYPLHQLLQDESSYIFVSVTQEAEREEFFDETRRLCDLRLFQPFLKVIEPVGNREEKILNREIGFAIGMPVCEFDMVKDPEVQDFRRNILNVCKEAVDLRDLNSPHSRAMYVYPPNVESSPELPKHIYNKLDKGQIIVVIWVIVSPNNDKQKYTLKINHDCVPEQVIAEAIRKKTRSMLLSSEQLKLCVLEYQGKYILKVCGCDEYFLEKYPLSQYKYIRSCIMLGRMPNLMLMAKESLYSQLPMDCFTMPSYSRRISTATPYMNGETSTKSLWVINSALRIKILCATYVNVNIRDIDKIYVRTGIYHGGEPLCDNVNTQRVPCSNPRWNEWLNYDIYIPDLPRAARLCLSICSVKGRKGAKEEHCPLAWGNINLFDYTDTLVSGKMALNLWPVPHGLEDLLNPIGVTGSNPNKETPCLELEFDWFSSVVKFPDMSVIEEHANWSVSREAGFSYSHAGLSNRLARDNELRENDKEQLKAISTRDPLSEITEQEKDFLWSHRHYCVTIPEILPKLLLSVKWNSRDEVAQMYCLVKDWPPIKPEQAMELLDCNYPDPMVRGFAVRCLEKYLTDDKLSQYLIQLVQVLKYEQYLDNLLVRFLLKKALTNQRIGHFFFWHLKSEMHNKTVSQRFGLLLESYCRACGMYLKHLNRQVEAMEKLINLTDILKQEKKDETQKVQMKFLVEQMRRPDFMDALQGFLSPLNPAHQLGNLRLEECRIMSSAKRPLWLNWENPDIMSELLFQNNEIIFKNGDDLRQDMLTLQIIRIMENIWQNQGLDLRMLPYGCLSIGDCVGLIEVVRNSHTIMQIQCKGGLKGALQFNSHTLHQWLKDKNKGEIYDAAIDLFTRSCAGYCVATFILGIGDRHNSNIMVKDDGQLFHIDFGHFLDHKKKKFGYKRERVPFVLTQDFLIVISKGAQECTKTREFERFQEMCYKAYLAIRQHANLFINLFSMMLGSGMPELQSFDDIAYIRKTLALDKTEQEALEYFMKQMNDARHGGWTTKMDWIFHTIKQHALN
Sequence (P27986 whole entry partner): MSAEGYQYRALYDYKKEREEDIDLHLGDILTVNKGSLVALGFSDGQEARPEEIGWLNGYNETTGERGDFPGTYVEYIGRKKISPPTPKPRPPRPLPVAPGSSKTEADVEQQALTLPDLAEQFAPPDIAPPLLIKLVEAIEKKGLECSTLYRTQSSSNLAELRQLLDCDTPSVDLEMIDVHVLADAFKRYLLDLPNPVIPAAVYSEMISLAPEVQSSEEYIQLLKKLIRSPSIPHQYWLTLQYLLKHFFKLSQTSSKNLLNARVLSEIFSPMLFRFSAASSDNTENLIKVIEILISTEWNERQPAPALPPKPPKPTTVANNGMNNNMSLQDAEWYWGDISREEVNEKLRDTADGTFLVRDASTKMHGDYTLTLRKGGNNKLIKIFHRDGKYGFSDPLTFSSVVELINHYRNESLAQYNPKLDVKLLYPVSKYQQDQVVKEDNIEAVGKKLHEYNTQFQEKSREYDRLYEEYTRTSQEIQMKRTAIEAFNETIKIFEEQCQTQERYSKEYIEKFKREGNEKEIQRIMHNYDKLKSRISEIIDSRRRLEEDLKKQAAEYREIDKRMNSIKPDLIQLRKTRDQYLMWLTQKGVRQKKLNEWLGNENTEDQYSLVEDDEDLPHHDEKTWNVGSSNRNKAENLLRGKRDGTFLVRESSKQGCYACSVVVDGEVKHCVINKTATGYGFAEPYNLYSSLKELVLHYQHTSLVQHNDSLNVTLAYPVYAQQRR

`O=C(Nc1ccccc1)c1cccc2c1C(c1cc(F)ccc1Cl)NC2=O` (centres unmarked) [Compound I-2188] and `O=C(/C=C/c1ccccc1)Nc1cccc2c1C(c1cc(F)ccc1Cl)NC2=O` (centres unmarked) [Compound I-2372] fall in the same range of IC50: 10 to 100 µM for the first, 10 to 100 µM for the second.

`O=C(Nc1cc(-c2cc(F)n3ncnc3c2)cc2c1[C@H](c1cc(F)ccc1Cl)NC2=O)c1cc(F)cc(C(F)(F)F)c1` [Compound I-1927] and `O=C(Nc1cc(-c2cc3ncnn3cc2F)cc2c1C(c1cc(F)ccc1Cl)NC2=O)c1cc(F)cc(C(F)(F)F)c1` (centres unmarked) [Compound I-1828] cannot be ordered by IC50: ≤ 0.1 µM for the first, ≤ 0.1 µM for the second.

First: O=C1N[C@@H](c2cc(F)ccc2Cl)c2c(N[C@H]3CCOc4ccccc43)cc(-c3cnn(C(F)F)c3)nc21 (single isomer, unassigned) [Compound I-2160]
Second: Cn1cc(-c2cc(NC(=O)c3cc(F)cc(Cl)c3)c3c(n2)C(=O)NC3c2cc(F)ccc2Cl)cn1 (centres unmarked) [Compound I-379]
The IC50 of the first is higher: 10 to 100 µM for the first, 0.1 to 0.5 µM for the second.

`O=C(Nc1cccc2c1C(c1cc(F)ccc1Cl)NC2=O)c1cc(F)ccc1NC1CCC1` (centres unmarked) [Compound I-872] and `CCC[C@@]1(O)CN(C(=O)Nc2cccc3c2[C@H](c2cc(F)ccc2Cl)NC3=O)c2ccc(F)cc21` (single isomer, unassigned) [Compound I-2459] fall in the same range of IC50: 1 to 10 µM for the first, 1 to 10 µM for the second.

`O=C1N[C@H](c2cc(F)ccc2Cl)c2c(NC(=O)N3C[C@](O)(C(F)(F)F)c4cc(F)ccc43)cc(Cl)cc21` (single isomer, unassigned) [Compound I-2512] and `NCCc1cc(NC(=O)N2C[C@@](O)(C(F)(F)F)c3cc(F)ccc32)c2c(c1)C(=O)N[C@@H]2c1cc(F)ccc1Cl` (single isomer, unassigned) [Compound I-2583] fall in the same range of IC50: 1 to 10 µM for the first, 1 to 10 µM for the second.

First: O=C1N[C@H](c2cc(F)ccc2Cl)c2c(NC(=O)N3C[C@@H](O)c4cc(F)ccc43)cc(-n3cccn3)cc21 (single isomer, unassigned) [Compound I-2365]
Second: O=C1N[C@@H](c2cc(F)ccc2Cl)c2c(NC(=O)N3C[C@@H](O)c4cc(F)ccc43)cc(Cl)cc21 (single isomer, unassigned) [Compound I-2401]
The IC50 of the first is lower: 0.5 to 1 µM for the first, 10 to 100 µM for the second.

`O=C1NC(c2cc(F)ccc2Cl)c2c(NC(=O)[C@H]3C[C@H](O)c4ccccc43)cc(Br)cc21` (mixture of isomers) [Compound I-1943] and `O=C1NC(c2cc(F)ccc2Cl)c2c(NC(=O)C3CC(C(F)(F)F)CCN3)cc(Br)cc21` (centres unmarked) [Compound I-1689] fall in the same range of IC50: 10 to 100 µM for the first, 10 to 100 µM for the second.

`N#Cc1cc2ncnn2cc1-c1cc(NC(=O)c2cc(F)cc(C(F)(F)F)c2)c2c(c1)C(=O)N[C@@H]2c1cc(F)ccc1Cl` (single isomer, unassigned) [Compound I-1646] and `O=C(Nc1cc(-c2ccn3nccc3n2)cc2c1C(c1cc(F)ccc1Cl)NC2=O)c1cc(F)cc(C(F)(F)F)c1` (centres unmarked) [Compound I-1763] cannot be ordered by IC50: ≤ 0.1 µM for the first, ≤ 0.1 µM for the second.

Compared with `CC(C)(O)COc1cc(NC(=O)c2cc(F)cc(C(F)(F)F)c2)c2c(c1)C(=O)N[C@H]2c1cc(F)ccc1Cl` [Compound I-740], `O=C(Nc1cc(OCC(F)F)cc2c1[C@@H](c1cc(F)ccc1Cl)NC2=O)c1cc(F)cc(C(F)(F)F)c1` [Compound I-2061] is higher in IC50: ≤ 0.1 µM for the first, 1 to 10 µM for the second. The first is the more potent here.

`O=C(Nc1cc(-c2cnc[nH]2)cc2c1C(c1cc(F)ccc1Cl)NC2=O)c1cc(F)cc(C(F)(F)F)c1` (centres unmarked) [Compound I-838] and `O=C(Nc1cc(Nc2cn[nH]c2)cc2c1[C@H](c1cc(F)ccc1Cl)NC2=O)c1cc(F)cc(C(F)(F)F)c1` [Compound I-1258] cannot be ordered by IC50: ≤ 0.1 µM for the first, ≤ 0.1 µM for the second.

First: Cc1ccccc1C1NC(=O)c2cccc(NC(=O)c3coc4cc(F)ccc34)c21 (centres unmarked) [Compound I-20]
Second: Cc1ccccc1C1NC(=O)c2cccc(NC(=O)N3CCc4ccc(Cl)cc43)c21 (centres unmarked) [Compound I-110]
The IC50 of the first is higher: 0.5 to 1 µM for the first, 0.1 to 0.5 µM for the second.

`O=C1NC(c2cc(F)ccc2Cl)c2c(NC(=O)N3CC(O)c4cc(Cl)ccc43)cccc21` (mixture of isomers) [Compound I-2376] and `O=C(Nc1cccc2c1C(c1ccc(C3CC3)cc1Cl)NC2=O)c1cc(F)cc(C(F)(F)F)c1` (centres unmarked) [Compound I-424] fall in the same range of IC50: 1 to 10 µM for the first, 1 to 10 µM for the second.

First: O=C(Nc1cccc2c1C([C@H]1CCCC[C@@H]1O)NC2=O)c1cc(F)cc(C(F)(F)F)c1 (single isomer, unassigned) [Compound I-1972]
Second: O=C(Nc1cccc2c1[C@@H](CC1CCCC1)NC2=O)c1cc(F)cc(C(F)(F)F)c1 [Compound I-2154]
The IC50 of the first is higher: 10 to 100 µM for the first, 1 to 10 µM for the second.

Compared with `O=C(Nc1cccc2c1C(CN1CCCCC1)NC2=O)c1cc(F)cc(C(F)(F)F)c1` (centres unmarked) [Compound I-1678], `O=C(Nc1cccc2c1C(CC1CCCC1)NC2=O)c1cc(F)cc(C(F)(F)F)c1` (centres unmarked) [Compound I-2109] is lower in IC50: 10 to 100 µM for the first, 1 to 10 µM for the second. The second is the more potent here.

First: O=C(Nc1cc(-c2ccc3ncnn3c2)cc2c1[C@H](c1cc(F)ccc1Cl)NC2=O)c1cccc(C(F)(F)F)c1 (stereo in doubt) [Compound I-1121]
Second: O=C(Nc1cc(-c2ccc3ncnn3c2)cc2c1[C@@H](c1cc(F)ccc1Cl)NC2=O)c1cc(F)cc(C(F)F)c1 (stereo in doubt) [Compound I-1172]
The IC50 of the first is lower: ≤ 0.1 µM for the first, 10 to 100 µM for the second.

`O=C1NCC(c2cc(NC(=O)c3cc(F)cc(C(F)(F)F)c3)c3c(c2)C(=O)NC3c2cc(F)ccc2Cl)O1` (centres unmarked) [Compound I-1359] and `O=C1COC(c2cc(NC(=O)c3cc(F)cc(C(F)(F)F)c3)c3c(c2)C(=O)NC3c2cc(F)ccc2Cl)CN1` (centres unmarked) [Compound I-1308] cannot be ordered by IC50: ≤ 0.1 µM for the first, ≤ 0.1 µM for the second.

First: O=C1NCc2c(NC(=O)c3csc4ccccc34)cccc21 [Compound I-3]
Second: CNC(=O)c1cc(NC(=O)c2nsc3ccccc23)c2c(c1)C(=O)N[C@H]2c1ccccc1C [Compound I-163]
The IC50 of the first is higher: 10 to 100 µM for the first, ≤ 0.1 µM for the second.

`Cc1ccccc1[C@H]1NC(=O)c2nccc(NC(=O)N3CCc4ccc(F)cc43)c21` [Compound I-247] and `Cc1ccccc1C1NC(=O)c2nccc(NC(=O)N3CCc4ccncc43)c21` (centres unmarked) [Compound I-251] fall in the same range of IC50: 10 to 100 µM for the first, 10 to 100 µM for the second.

`O=C(Nc1cccc2c1C(c1cccc3cn[nH]c13)NC2=O)c1cc(F)cc(C(F)(F)F)c1` (centres unmarked) [Compound I-666] and `O=C(Nc1cccc2c1C(c1ccc3ccccc3c1)NC2=O)c1cc(F)cc(C(F)(F)F)c1` (centres unmarked) [Compound I-371] fall in the same range of IC50: 10 to 100 µM for the first, 10 to 100 µM for the second.

`O=C(Nc1cc(NC(=O)C2CS(=O)(=O)C2)cc2c1C(c1cc(F)ccc1Cl)NC2=O)c1cc(F)cc(C(F)(F)F)c1` (centres unmarked) [Compound I-351] and `NC(=O)c1cc(NC(=O)c2cc(F)cc(C(F)(F)F)c2)c2c(c1)C(=O)NC2c1cc(F)ccc1Cl` (centres unmarked) [Compound I-555] cannot be ordered by IC50: ≤ 0.1 µM for the first, ≤ 0.1 µM for the second.

`CC(C)(C#N)n1cc(-c2cc(NC(=O)c3cc(F)cc(C(F)(F)F)c3)c3c(c2)C(=O)NC3c2cc(F)ccc2Cl)cn1` (centres unmarked) [Compound I-1618] and `O=C(Nc1cc(CC2(O)CCC2)cc2c1C(c1cc(F)ccc1Cl)NC2=O)c1cc(F)cc(C(F)(F)F)c1` (centres unmarked) [Compound I-706] cannot be ordered by IC50: ≤ 0.1 µM for the first, ≤ 0.1 µM for the second.

Compared with `O=C(Nc1cccc2c1C(c1cc(F)c(F)cc1C(F)F)NC2=O)c1cc(F)cc(Cl)c1` (centres unmarked) [Compound I-331], `O=C(Nc1ccnc2c1C(c1cccc(F)c1F)NC2=O)c1cc(F)cc(Cl)c1` (centres unmarked) [Compound I-173] is higher in IC50: 0.1 to 0.5 µM for the first, 1 to 10 µM for the second. The first is the more potent here.

Compared with `O=C(Nc1cccc2c1C(C1CCCOC1)NC2=O)c1cc(F)cc(C(F)(F)F)c1` (racemic) [Compound I-1958], `O=C1NC(c2cc(F)ccc2Cl)c2c(NC(=O)N3CCCC34CCC4)cc(Br)cc21` (centres unmarked) [Compound I-2377] is lower in IC50: 10 to 100 µM for the first, 0.5 to 1 µM for the second. The second is the more potent here.

`O=C1N[C@H](c2cc(F)ccc2Cl)c2c(Nc3cn[nH]c3)cc(Br)cc21` (racemic) [Compound I-2183] showed an IC50 of 10 to 100 µM.
